Measurements reported in patent publication US7211557B2, “Use of GLP-1 analogs and derivatives administered peripherally in regulation of obesity” (Eli Lilly and Company, priority 1996, dated 2007).

Tests used:
[1] = Continuous subcutaneous infusion of GLP-1(7-36) amide for four weeks in NIDDM patients, preceded and followed by two weeks of intensive insulin therapy: body weight; assay type: in vivo, human; details: for body weight lost, average: four patients, mean±SEM
[2] = system: STC-1 cells; details: exposure of STC-1 cells; cited from earlier work
[3] = cited from earlier work
[4] = cited from earlier work; remark: listed apart in the source

insulin
body weight lost, average ([1]; first two weeks of intensive insulin treatment): 1.3 ± 0.6 kg | Weight Change ([1]; mean±SEM of patients (no data for MP), Second Insulin treatment, 2 weeks): +1.0 ± 1.0 kg | Patient Weight ([1]; mean±SEM of patients (no data for MP), after Second Insulin treatment, 2 weeks): 98.2 ± 5.0 kg | Weight Change ([1]; mean±SEM of patients, First Insulin treatment, 2 weeks): -1.3 ± 0.6 kg | Patient Weight ([1]; mean±SEM of patients, after First Insulin treatment, 2 weeks): 96.4 ± 6.0 kg | Weight Change ([1]; patient four, First Insulin treatment, 2 weeks): -2.0 kg | Weight Change ([1]; patient four, Second Insulin treatment, 2 weeks): 0.0 kg | Patient Weight ([1]; patient four, after First Insulin treatment, 2 weeks): 111.0 kg | Patient Weight ([1]; patient four, after Second Insulin treatment, 2 weeks): 108.0 kg | Weight Change ([1]; patient one, First Insulin treatment, 2 weeks): -2.5 kg | Weight Change ([1]; patient one, Second Insulin treatment, 2 weeks): 3.0 kg | Patient Weight ([1]; patient one, after First Insulin treatment, 2 weeks): 99.0 kg | Patient Weight ([1]; patient one, after Second Insulin treatment, 2 weeks): 95.0 kg | Weight Change ([1]; patient three, First Insulin treatment, 2 weeks): -0.1 kg | Patient Weight ([1]; patient three, after First Insulin treatment, 2 weeks): 81.9 kg | Weight Change ([1]; patient two, First Insulin treatment, 2 weeks): -0.5 kg | Weight Change ([1]; patient two, Second Insulin treatment, 2 weeks): 0.0 kg | Patient Weight ([1]; patient two, after First Insulin treatment, 2 weeks): 93.5 kg | Patient Weight ([1]; patient two, after Second Insulin treatment, 2 weeks): 91.5 kg | body weight change, on average ([1]; second two weeks of intensive insulin treatment): gained weight

CCCCCCCCCCCCCC(=O)O[C@@H]1[C@@H](C)[C@@]2(O)[C@@H](C=C(CO)C[C@]3(O)C(=O)C(C)=C[C@@H]23)[C@@H]2C(C)(C)[C@]12OC(C)=O [TPA, 12-O-tetradecanoylphorbol-13-acetate]
release of GLP-1 [2]: significant increases in release of GLP-1

GLP-1(7-36) amide
food intake ([3]; acute intraperitoneal administration in rats): does not affect food intake | early dark-phase feeding ([3]; intraperitoneal administration, even at relatively high doses): does not affect early dark-phase feeding | food intake following injection of neuropeptide Y ([4]; ICV, animals fed ad libitum): significantly reduces food intake | feeding ([4]; intracerebroventricular route (ICV), fasted rats): markedly inhibits feeding | body weight lost, average ([1]; during GLP-1 treatment (4 weeks)): 3.5 ± 1.2 kg | Weight Change ([1]; mean±SEM of patients, GLP-1 infusion 1.2 pmol/kg/minute s.c., 4 weeks): -3.5 ± 1.2 kg | Patient Weight ([1]; mean±SEM of patients, after GLP-1 infusion 1.2 pmol/kg/minute s.c., 4 weeks): 92.9 ± 5.8 kg | Weight Change ([1]; patient four, GLP-1 infusion 1.2 pmol/kg/minute s.c., 4 weeks): -3.0 kg | Patient Weight ([1]; patient four, after GLP-1 infusion 1.2 pmol/kg/minute s.c., 4 weeks): 108.0 kg | Weight Change ([1]; patient one, GLP-1 infusion 1.2 pmol/kg/minute s.c., 4 weeks): -7.0 kg | Patient Weight ([1]; patient one, after GLP-1 infusion 1.2 pmol/kg/minute s.c., 4 weeks): 92.0 kg | Weight Change ([1]; patient three, GLP-1 infusion 1.2 pmol/kg/minute s.c., 4 weeks): -1.9 kg | Patient Weight ([1]; patient three, after GLP-1 infusion 1.2 pmol/kg/minute s.c., 4 weeks): 80.0 kg | Weight Change ([1]; patient two, GLP-1 infusion 1.2 pmol/kg/minute s.c., 4 weeks): -2.0 kg | Patient Weight ([1]; patient two, after GLP-1 infusion 1.2 pmol/kg/minute s.c., 4 weeks): 91.5 kg | effect on body weight ([1]; peripheral administration to obese patients): significant reduction in body weight
